Results published in article PMC3648604 (Antiviral research, 2013).

Biological target: NA activity of the H5N1 influenza viruses (Influenza A virus (H5N1), UniProt Q6DPL2)
Assay type: biochemical, human and avian HP H5N1 influenza viruses

NA activity of the H5N1 influenza viruses, sequence (Q6DPL2 whole entry, looked up): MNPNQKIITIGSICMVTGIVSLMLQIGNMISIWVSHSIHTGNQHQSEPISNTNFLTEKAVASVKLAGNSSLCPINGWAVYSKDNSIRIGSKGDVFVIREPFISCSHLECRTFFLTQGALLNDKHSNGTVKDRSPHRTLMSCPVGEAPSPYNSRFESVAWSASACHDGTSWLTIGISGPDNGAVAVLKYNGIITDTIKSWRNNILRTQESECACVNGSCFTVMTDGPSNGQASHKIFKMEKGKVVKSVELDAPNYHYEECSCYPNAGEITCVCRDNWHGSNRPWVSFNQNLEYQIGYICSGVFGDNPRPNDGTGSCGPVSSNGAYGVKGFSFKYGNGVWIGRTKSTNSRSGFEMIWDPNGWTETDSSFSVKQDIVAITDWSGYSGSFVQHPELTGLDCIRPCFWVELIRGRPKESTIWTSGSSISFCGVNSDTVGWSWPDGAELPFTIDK

With `CC(=O)N[C@H]1[C@H]([C@H](O)[C@H](O)CO)OC(C(=O)O)=C[C@@H]1N=C(N)N` [Zanamivir, 4-guanidino-Neu5Ac2en] the “susceptibility in phenotypic fluorescence-based assay” value was “fully susceptible”.
